Experiments:
CLK2 kinase = CLK2 kinase (Homo sapiens, UniProt P49760); experiment: CLK2 kinase activity assay (Z-lyte FRET); type: biochemical; settings: Z-lyte Ser/Thr 6 peptide, 60 μM ATP, 1 h at room temperature;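 also: FRET read-out as coumarin to fluorescein emission ratio, unphosphorylated peptide as 0% and phosphorylated peptide as 100% controls, duplicate reactions, non-linear regression fit of dose-response curves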
CLK3 kinase = CLK3 kinase (Homo sapiens, UniProt P49761); experiment: CLK3 kinase activity assay (Z-lyte FRET); type: biochemical; settings: Z-lyte Ser/Thr 18 peptide, 156 μM ATP, 1 h at room temperature;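 also: kinase activity read as coumarin/fluorescein emission ratio by FRET, unphosphorylated peptide as 0% and phosphorylated peptide as 100% control, values from non-linear regression of dose-response curves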
[1] = test system: primary human mesenchymal stem cells (hMSCs); experiment: Chondrogenesis screening using primary human mesenchymal stem cells; type: cell-based; settings: Homo sapiens, Mesenchymal stem cells, hMSC chondrogenesis; for EC50: concentration required to induce 50% levels of chondrogenesis with TGF-β3 as positive control, read-out: Conc (nM) of 50% TGF-β3 activity; for Emax: maximum activity relative to TGF-β3 (10 ng/mL) positive control, read-out: Max. Activity as % TGF-β3 activity
In short: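 Primary hMSCs at passage 3–6 were treated across compound concentrations, with TGF-β3 as positive control. Chondrogenic nodule area per well was normalized to 3 DMSO wells on the same plate (fold over DMSO, 2–3 replicates). EC50, maximum activity and the dose reaching it were derived.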

[2] = test system: Wnt pathway activity (SW480 colon carcinoma cells stably expressing the Sp5-Luc reporter); experiment: Wnt pathway activity screening assay (Sp5-Luc reporter gene assay); settings: Homo sapiens, SW480, Table 4; SW480 cells stably expressing Sp5-Luc reporter, 10-point dose-response from 10 μM, 36 to 48 hours

Chain of CLK3 kinase (P49761 whole entry): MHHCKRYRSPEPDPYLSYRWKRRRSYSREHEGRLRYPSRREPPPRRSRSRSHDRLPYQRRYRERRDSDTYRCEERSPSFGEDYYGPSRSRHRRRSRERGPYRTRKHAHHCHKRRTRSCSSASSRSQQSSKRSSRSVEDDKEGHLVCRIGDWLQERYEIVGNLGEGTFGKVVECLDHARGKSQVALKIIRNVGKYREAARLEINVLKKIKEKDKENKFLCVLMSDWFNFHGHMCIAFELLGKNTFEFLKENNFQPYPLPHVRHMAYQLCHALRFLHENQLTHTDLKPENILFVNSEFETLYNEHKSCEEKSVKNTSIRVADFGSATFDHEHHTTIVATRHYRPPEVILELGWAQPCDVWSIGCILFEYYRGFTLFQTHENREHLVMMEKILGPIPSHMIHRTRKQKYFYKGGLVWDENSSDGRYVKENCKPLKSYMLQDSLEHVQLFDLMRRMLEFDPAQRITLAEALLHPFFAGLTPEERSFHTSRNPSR
Chain of CLK2 kinase (P49760 whole entry): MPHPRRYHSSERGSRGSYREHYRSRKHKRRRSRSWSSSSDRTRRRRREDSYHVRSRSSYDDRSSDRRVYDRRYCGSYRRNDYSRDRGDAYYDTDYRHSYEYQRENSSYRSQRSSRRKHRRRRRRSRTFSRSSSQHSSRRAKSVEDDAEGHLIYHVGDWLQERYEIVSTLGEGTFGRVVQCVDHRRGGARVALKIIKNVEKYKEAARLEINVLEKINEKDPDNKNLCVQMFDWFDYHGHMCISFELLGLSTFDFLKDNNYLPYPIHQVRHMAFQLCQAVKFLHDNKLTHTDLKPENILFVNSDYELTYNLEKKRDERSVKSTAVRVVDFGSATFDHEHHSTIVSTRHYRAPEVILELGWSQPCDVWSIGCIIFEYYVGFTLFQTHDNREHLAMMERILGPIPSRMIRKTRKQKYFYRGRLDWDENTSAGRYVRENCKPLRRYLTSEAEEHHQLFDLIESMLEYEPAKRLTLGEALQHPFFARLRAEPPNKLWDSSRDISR

EC50 (CLK2 kinase)	EC50 (CLK3 kinase)	EC50 [1]	EC50 [2]	SMILES	Emax [1]
2 nM	113 nM	100 nM	298 nM	CC(C)Nc1cncc(-c2ccc3[nH]nc(-c4nc5c(-c6ccoc6)ccnc5[nH]4)c3n2)c1 [compound 240]	64.2%
15 nM	76 nM	10 nM	18.9 nM	Cc1ccncc1-c1ccc2[nH]nc(-c3nc4c(-c5ccsc5)nccc4[nH]3)c2c1 [compound 242]	156%
5 nM	62 nM	100 nM	10 nM	CCC(=O)Nc1cncc(-c2cnc3[nH]nc(-c4nc5c(-c6ccsc6)cccc5[nH]4)c3c2)c1 [compound 243]	167%
16 nM	64 nM	30 nM	2 nM	CCC(=O)Nc1cncc(-c2ccc3[nH]nc(-c4nc5c(-c6ccsc6)cncc5[nH]4)c3c2)c1 [compound 244]	203%
34 nM	9840 nM	30 nM	7.7 nM	CCCC(=O)Nc1cncc(-c2ccc3[nH]nc(-c4nc5c(-c6ccsc6)ccnc5[nH]4)c3c2)c1 [compound 245]	72.6%
3 nM	21 nM	–	61.5 nM	CCCC(=O)Nc1cncc(-c2ccc3[nH]nc(-c4nc5c(-c6ccsc6)cncc5[nH]4)c3c2)c1 [compound 246]	42%
2 nM	48 nM	20.6 nM	3640 nM	CCCC(=O)Nc1cncc(-c2ccc3[nH]nc(-c4nc5c(-c6ccsc6)cncc5[nH]4)c3n2)c1 [compound 247]	58.4%
1 nM	30 nM	30 nM	59.3 nM	CCNCc1cncc(-c2cc3c(-c4nc5c(-c6ccsc6)nccc5[nH]4)n[nH]c3cn2)c1 [compound 249]	67.7%
2 nM	118 nM	–	57 nM	CN(C)Cc1cncc(-c2cnc3[nH]nc(-c4nc5c(-c6ccsc6)cncc5[nH]4)c3c2)c1 [compound 252]	91.3%
7 nM	26 nM	–	1.8 nM	FC1(F)CCN(Cc2cncc(-c3ccc4[nH]nc(-c5nc6c(-c7ccsc7)cncc6[nH]5)c4c3)c2)C1 [compound 253]	81.3%
3 nM	43 nM	–	12 nM	c1cncc(-c2cnc3[nH]nc(-c4nc5c(-c6cccs6)cccc5[nH]4)c3c2)c1 [compound 254]	41.6%
3 nM	62 nM	–	4 nM	CCC(=O)Nc1cncc(-c2cnc3[nH]nc(-c4nc5c(-c6cccs6)cncc5[nH]4)c3c2)c1 [compound 255]	69.8%
9 nM	62 nM	–	0.1 nM	CC(C)CC(=O)Nc1cncc(-c2ccc3[nH]nc(-c4nc5c(-c6cccs6)cncc5[nH]4)c3c2)c1 [compound 256]	53.3%
7 nM	115 nM	–	22.2 nM	O=C(Nc1cncc(-c2cc3c(-c4nc5c(-c6cccs6)nccc5[nH]4)n[nH]c3cn2)c1)C1CC1 [compound 257]	68.3%
2 nM	83 nM	10 nM	710 nM	CN(C)c1cncc(-c2ccc3[nH]nc(-c4nc5c(-c6cccs6)cncc5[nH]4)c3n2)c1 [compound 258]	65.6%
4 nM	167 nM	–	98 nM	c1csc(-c2cncc3[nH]c(-c4n[nH]c5ncc(-c6cncc(CNCC7CCCC7)c6)cc45)nc23)c1 [compound 259]	74.6%
2 nM	150 nM	10 nM	3110 nM	CN(C)CCOc1cncc(-c2ccc3[nH]nc(-c4nc5c(-c6cccs6)cccc5[nH]4)c3n2)c1 [compound 261]	142%
85 nM	754 nM	30 nM	16.7 nM	CC(C)(C)C(=O)Nc1cncc(-c2ccc3[nH]nc(-c4nc5c(-c6ccc(F)s6)ccnc5[nH]4)c3c2)c1 [compound 262]	120%
18 nM	358 nM	–	35.3 nM	CC(C)(C)C(=O)Nc1cncc(-c2cc3c(-c4nc5c(-c6ccc(F)s6)nccc5[nH]4)n[nH]c3cn2)c1 [compound 263]	40.9%

EC50 (CLK2 kinase)	EC50 (CLK3 kinase)	EC50 [1]	EC50 [2]	SMILES	Emax [1]
8 nM	91 nM	10 nM	551 nM	CC(C)(C)C(=O)Nc1cncc(-c2ccc3[nH]nc(-c4nc5c(-c6ccc(Cl)s6)cncc5[nH]4)c3n2)c1 [compound 265]	84.7%
15 nM	67 nM	10 nM	1480 nM	CC(C)CC(=O)Nc1cncc(-c2ccc3[nH]nc(-c4nc5c(-c6ccc(Cl)s6)cncc5[nH]4)c3n2)c1 [compound 266]	60.6%
8 nM	9840 nM	30 nM	823 nM	O=C(Nc1cncc(-c2ccc3[nH]nc(-c4nc5c(-c6ccc(Cl)s6)nccc5[nH]4)c3n2)c1)C1CCC1 [compound 267]	60.2%
12 nM	145 nM	30 nM	800 nM	O=C(Nc1cncc(-c2ccc3[nH]nc(-c4nc5c(-c6ccc(Cl)s6)cncc5[nH]4)c3n2)c1)C1CCC1 [compound 268]	67.9%
12 nM	183 nM	10 nM	354 nM	O=C(Nc1cncc(-c2ccc3[nH]nc(-c4nc5c(-c6ccc(Cl)s6)ccnc5[nH]4)c3n2)c1)C1CCC1 [compound 269]	102%
4 nM	88 nM	10 nM	3330 nM	Clc1ccc(-c2cncc3[nH]c(-c4n[nH]c5ccc(-c6cncc(CN7CCCC7)c6)nc45)nc23)s1 [compound 270]	62%
2 nM	34 nM	10 nM	66.3 nM	Cc1ccc(-c2cccc3[nH]c(-c4n[nH]c5ccc(-c6cncc(N)c6)nc45)nc23)s1 [compound 271]	87.9%
5 nM	52 nM	2700 nM	1.9 nM	Cc1ccc(-c2nccc3[nH]c(-c4n[nH]c5ccc(-c6cncc(N)c6)cc45)nc23)s1 [compound 272]	163%
4 nM	29 nM	10 nM	9.2 nM	Cc1ccc(-c2nccc3[nH]c(-c4n[nH]c5cnc(-c6cncc(N)c6)cc45)nc23)s1 [compound 273]	259%
11 nM	203 nM	100 nM	10.9 nM	Cc1ccc(-c2cncc3[nH]c(-c4n[nH]c5cnc(-c6cncc(N)c6)cc45)nc23)s1 [compound 274]	162%
2 nM	9 nM	30 nM	40.7 nM	Cc1ccc(-c2cncc3[nH]c(-c4n[nH]c5ccc(-c6cncc(N)c6)nc45)nc23)s1 [compound 276]	79.4%
6 nM	29 nM	100 nM	10.1 nM	Cc1ccc(-c2cncc3[nH]c(-c4n[nH]c5cnc(-c6cncc(NC(=O)C7CCC7)c6)cc45)nc23)s1 [compound 277]	231%
5 nM	36 nM	300 nM	21 nM	CN(C)CCNc1cc(F)cc(-c2cncc3[nH]c(-c4n[nH]c5ncc(-c6cccnc6)cc45)nc23)c1 [compound 278]	129%
2 nM	93 nM	10 nM	> 10000 nM	CCCCC(=O)Nc1cncc(-c2ccc3[nH]nc(-c4nc5c(-c6cc(F)cc(NCCN(C)C)c6)cncc5[nH]4)c3n2)c1 [compound 279]	64.7%
2 nM	79 nM	10 nM	> 10000 nM	CCCCC(=O)Nc1cncc(-c2ccc3[nH]nc(-c4nc5c(-c6cc(F)cc(NCCN(C)C)c6)ccnc5[nH]4)c3n2)c1 [compound 280]	71.4%
6 nM	25 nM	–	22 nM	CC(C)CC(=O)Nc1cncc(-c2ccc3[nH]nc(-c4nc5c(-c6cc(F)cc(NCCN(C)C)c6)cncc5[nH]4)c3c2)c1 [compound 281]	82%
4 nM	50 nM	30 nM	202 nM	CC(C)Nc1cncc(-c2ccc3[nH]nc(-c4nc5c(-c6cc(F)cc(NCCN(C)C)c6)nccc5[nH]4)c3c2)c1 [compound 282]	85.1%
4 nM	33 nM	30 nM	154 nM	CC(C)Nc1cncc(-c2cnc3[nH]nc(-c4nc5c(-c6cc(F)cc(NCCN(C)C)c6)nccc5[nH]4)c3c2)c1 [compound 283]	82.9%
1 nM	90 nM	–	> 10000 nM	CCNCc1cncc(-c2ccc3[nH]nc(-c4nc5c(-c6cc(F)cc(NCCN(C)C)c6)nccc5[nH]4)c3n2)c1 [compound 285]	35.6%

From US20230000842A1, “METHODS OF TREATING CARTILAGE DISORDERS THROUGH INHIBITION OF CLK AND DYRK” (SAMUMED, LLC, priority 2019, published 2023)
